Data published in paper PMC8892849 (ACS Omega, 2022).

Key:
In vitro cytotoxic assay = assay type: cell-based; conditions: normal peripheral blood mononuclear cells (PBMCs)
[1] = system: non-small cell lung cancer cells (A-549); experiment: In vitro cytotoxic assay; assay type: cell-based, human; conditions: for IC50: Homo sapiens, A549, 48 h, read-out: IC50 (mean ± SEM) A-549; for SI (selectivity index) A-549: normal PBMC vs A-549
[2] = system: hepatocellular carcinoma (HepG-2); experiment: In vitro cytotoxic assay; assay type: cell-based, human; conditions: for IC50: Homo sapiens, HepG2, 48 h, read-out: IC50 (mean ± SEM) HepG-2; for SI (selectivity index) HepG-2: normal PBMC vs HepG-2
[3] = system: prostate carcinoma (PC-3); experiment: In vitro cytotoxic assay; assay type: cell-based, human; conditions: for IC50: Homo sapiens, 48 h, read-out: IC50 (mean ± SEM) PC-3; for SI (selectivity index) PC-3: normal PBMC vs PC-3
[4] = system: breast adenocarcinoma (MCF-7); experiment: In vitro cytotoxic assay; assay type: cell-based, human; conditions: for IC50: Homo sapiens, MCF7, 48 h, read-out: IC50 (mean ± SEM) MCF-7; for SI (selectivity index) MCF-7: normal PBMC vs MCF-7
EGFR^T790M = EGFR^T790M (Homo sapiens, UniProt P00533, T790M); experiment: HTRF kinase inhibition assay, EGFR^T790M
EGFR^WT = EGFR^WT (Homo sapiens, UniProt P00533); experiment: HTRF kinase inhibition assay, EGFR^WT
p53 ubiquitination = experiment: In vivo p53 ubiquitination inhibition of MCF-7 cells; assay type: cell-based; conditions: Homo sapiens, MCF7, 6 h, read-out: IC50 (mean ± SEM) p53 ubiquitination

Chain of EGFR^T790M (P00533 25-1210 T790M): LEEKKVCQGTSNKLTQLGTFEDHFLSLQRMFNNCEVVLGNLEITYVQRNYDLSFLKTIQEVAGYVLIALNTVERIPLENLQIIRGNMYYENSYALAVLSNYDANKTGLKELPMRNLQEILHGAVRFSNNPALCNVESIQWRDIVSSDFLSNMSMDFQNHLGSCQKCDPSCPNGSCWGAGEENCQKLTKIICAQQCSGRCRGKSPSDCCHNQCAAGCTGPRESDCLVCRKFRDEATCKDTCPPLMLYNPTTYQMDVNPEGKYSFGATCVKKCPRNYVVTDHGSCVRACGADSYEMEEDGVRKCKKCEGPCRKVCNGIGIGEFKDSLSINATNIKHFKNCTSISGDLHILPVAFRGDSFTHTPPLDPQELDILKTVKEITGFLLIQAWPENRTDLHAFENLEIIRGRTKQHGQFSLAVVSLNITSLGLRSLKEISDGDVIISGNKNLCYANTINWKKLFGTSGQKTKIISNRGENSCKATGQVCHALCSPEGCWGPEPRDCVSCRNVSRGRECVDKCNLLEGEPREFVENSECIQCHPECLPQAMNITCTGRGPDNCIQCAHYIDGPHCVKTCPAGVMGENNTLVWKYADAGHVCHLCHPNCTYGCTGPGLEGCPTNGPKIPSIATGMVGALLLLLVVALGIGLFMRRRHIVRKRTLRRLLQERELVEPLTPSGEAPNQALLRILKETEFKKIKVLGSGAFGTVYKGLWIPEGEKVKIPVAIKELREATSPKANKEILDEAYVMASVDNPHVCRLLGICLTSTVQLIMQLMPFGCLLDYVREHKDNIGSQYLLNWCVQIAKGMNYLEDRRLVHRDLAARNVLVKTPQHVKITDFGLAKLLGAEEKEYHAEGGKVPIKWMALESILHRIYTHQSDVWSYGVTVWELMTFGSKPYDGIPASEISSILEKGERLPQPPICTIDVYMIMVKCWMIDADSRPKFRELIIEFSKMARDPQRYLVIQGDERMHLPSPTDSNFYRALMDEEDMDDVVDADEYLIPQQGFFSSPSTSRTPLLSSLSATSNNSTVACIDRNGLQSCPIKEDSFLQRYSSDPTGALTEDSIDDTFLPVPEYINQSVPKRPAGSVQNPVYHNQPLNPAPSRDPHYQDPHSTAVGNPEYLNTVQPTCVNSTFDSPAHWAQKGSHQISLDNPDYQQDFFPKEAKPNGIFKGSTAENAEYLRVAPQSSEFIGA
Chain of EGFR^WT (P00533 25-1210): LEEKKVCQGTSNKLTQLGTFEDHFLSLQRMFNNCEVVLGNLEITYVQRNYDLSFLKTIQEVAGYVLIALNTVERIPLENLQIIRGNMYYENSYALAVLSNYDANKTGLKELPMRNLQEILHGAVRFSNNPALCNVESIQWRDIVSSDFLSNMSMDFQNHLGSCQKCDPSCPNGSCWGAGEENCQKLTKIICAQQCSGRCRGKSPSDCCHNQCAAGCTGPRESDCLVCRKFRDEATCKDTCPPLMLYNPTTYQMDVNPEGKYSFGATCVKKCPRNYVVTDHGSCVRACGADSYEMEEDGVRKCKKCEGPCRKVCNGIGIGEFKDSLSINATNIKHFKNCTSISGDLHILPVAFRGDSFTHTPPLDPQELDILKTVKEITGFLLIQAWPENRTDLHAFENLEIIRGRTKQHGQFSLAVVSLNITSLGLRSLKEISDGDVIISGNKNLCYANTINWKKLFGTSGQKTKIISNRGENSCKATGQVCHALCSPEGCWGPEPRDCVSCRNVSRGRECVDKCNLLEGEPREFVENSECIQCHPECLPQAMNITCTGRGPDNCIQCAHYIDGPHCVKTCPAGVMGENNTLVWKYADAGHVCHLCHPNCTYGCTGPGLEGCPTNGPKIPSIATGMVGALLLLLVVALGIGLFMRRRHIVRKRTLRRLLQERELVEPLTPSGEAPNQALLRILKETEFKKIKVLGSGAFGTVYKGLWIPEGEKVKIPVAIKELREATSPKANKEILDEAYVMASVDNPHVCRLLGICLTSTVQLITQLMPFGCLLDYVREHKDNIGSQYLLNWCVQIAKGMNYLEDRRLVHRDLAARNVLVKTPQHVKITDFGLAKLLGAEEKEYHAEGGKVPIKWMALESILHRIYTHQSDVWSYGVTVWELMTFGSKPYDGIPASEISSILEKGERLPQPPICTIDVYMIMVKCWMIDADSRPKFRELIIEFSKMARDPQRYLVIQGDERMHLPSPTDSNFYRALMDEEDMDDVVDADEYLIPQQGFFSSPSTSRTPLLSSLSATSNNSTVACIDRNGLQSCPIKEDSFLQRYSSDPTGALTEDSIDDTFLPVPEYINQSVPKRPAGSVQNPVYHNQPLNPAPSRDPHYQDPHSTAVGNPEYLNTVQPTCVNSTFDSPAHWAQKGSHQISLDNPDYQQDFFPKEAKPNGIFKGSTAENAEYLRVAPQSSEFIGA

Row | Compound | IC50 at 48 h (In vitro cytotoxic assay) [µM] | IC50 [1] [µM] | SI (selectivity index) A-549 [1] | IC50 [2] [µM] | SI (selectivity index) HepG-2 [2] | IC50 [3] [µM] | SI (selectivity index) PC-3 [3] | IC50 [4] [µM] | SI (selectivity index) MCF-7 [4] | IC50 (EGFR^T790M) [µM] | IC50 (EGFR^WT) [µM] | IC50 (p53 ubiquitination) [µM] | folds more potent than doxorubicin ([1]; A-549 cell line) [folds] | folds more potent than doxorubicin and erlotinib ([4]; MCF-7 cells) [folds] | fold more potent EGFR^WT inhibitor than erlotinib (EGFR^WT; EGFR^WT) [fold] | folds less potency compared to erlotinib ([1]; A-549) [folds]
1 | Oc1cccc(N=c2nc(Cc3ccccc3)[nH]c(=S)[nH]2)c1 [Compound 8c, 6-Benzyl-4-((3-hydroxyphenyl)imino)-3,4-dihydro-1,3,5-triazine-2(1H)-thione] | 189 ± 19.9 | 8.29 ± 0.03 | SI = 22.78 | 45.49 ± 0.04 | SI = 4.15 | 32.48 ± 0.04 | SI = 5.81 | 10.31 ± 0.04 | SI = 18.32 |  |  |  |  |  |  | 
2 | C#Cc1cccc(Nc2ncnc3cc(OCCOC)c(OCCOC)cc23)c1 [erlotinib, reference compound] | 45.8 ± 26.6 | 3.76 ± 0.2 |  |  |  | 8.89 ± 0.6 |  |  |  |  |  |  |  |  |  | 
3 | O=C(Cc1ccccc1)Nc1nc2ccccc2[nH]1 [Compound 3, N-(1H-Benzo[d]imidazol-2-yl)-2-phenylacetamide] | 179 ± 18.8 | 10.42 ± 0.05 |  | 37.73 ± 0.02 |  | 17.29 ± 0.03 |  | 6.59 ± 0.07 |  |  |  |  |  |  |  | 
4 | O=[N+]([O-])c1ccc(N=c2nc(Cc3ccccc3)[nH]c(=S)[nH]2)c(Cl)c1 [Compound 8d, 6-Benzyl-4-((2-chloro-4-nitrophenyl)imino)-3,4-dihydro-1,3,5-triazine-2(1H)-thione] | 179 ± 19 | 9.5 ± 0.06 | SI = 18.85 | 47.86 ± 0.05 | SI = 3.74 | 39.55 ± 0.08 | SI = 4.52 | 14.77 ± 0.05 | SI = 12.12 |  |  |  |  |  |  | 
5 | CC(C)NC(=S)NC(=O)Cc1ccccc1 [Compound 2a, N-(Isopropylcarbamothioyl)-2-phenylacetamide] | 121 ± 11.3 | 34.57 ± 0.06 |  | 57.85 ± 0.07 |  | 26.8 ± 2.21 |  | 37.73 ± 0.08 |  |  |  |  |  |  |  | 
6 | Oc1cccc(Nc2nnc(Cc3ccccc3)[nH]2)c1 [Compound 5c, 3-((5-Benzyl-4H-1,2,4-triazol-3-yl)amino)phenol] | 146 ± 16.1 | 12.3 ± 0.04 | SI = 11.89 | 27.59 ± 0.04 | SI = 5.23 | 18.44 ± 0.04 | SI = 7.93 | 4.33 ± 0.04 | SI = 33.79 | 0.14 | 0.24 ± 0.3 |  |  |  |  | 
7 | O=C(Cc1ccccc1)NC(=S)Nc1cccc(O)c1 [Compound 2d, N-((3-Hydroxyphenyl)carbamothioyl)-2-phenylacetamide] | 158 ± 16.4 | 20.84 ± 0.04 |  | 34.77 ± 0.03 |  | 39.3 |  | 24.74 ± 0.08 |  |  |  |  |  |  |  | 
8 | O=C(Cc1ccccc1)NC(=S)Nc1ccc([N+](=O)[O-])cc1Cl [Compound 2e, N-((2-Chloro-4-nitrophenyl)carbamothioyl)-2-phenylacetamide] | 169 ± 17.4 | 25.96 ± 0.05 |  | 37.76 ± 0.05 |  | 40.56 ± 0.05 |  | 25.64 ± 0.08 |  |  |  |  |  |  |  | 
9 | CC(C)Nc1nnc(Cc2ccccc2)[nH]1 [Compound 5a, 5-Benzyl-N-isopropyl-4H-1,2,4-triazol-3-amine] | 175 ± 18.2 | 10.37 ± 0.04 | SI = 16.86 | 35.66 ± 0.04 | SI = 4.90 | 16.49 ± 0.05 | SI = 10.60 | 5.42 ± 0.05 | SI = 32.26 | 0.17 ± 0.05 | 0.25 ± 0.01 | 0.00068 ± 1e-05 |  |  |  | 
10 | Oc1cccc(Nc2nc(Cc3ccccc3)nn2-c2ccccc2)c1 [Compound 6b, 3-((3-Benzyl-1-phenyl-1H-1,2,4-triazol-5-yl)amino)phenol] | 178 ± 17.7 | 3.18 ± 0.03 | SI = 56.04 | 5.47 ± 0.02 | SI = 32.58 | 13.21 ± 0.06 | SI = 13.49 | 1.29 ± 0.03 | SI = 138.16 | 0.09 ± 0.01 | 0.08 ± 0.05 | 0.0005 ± 5e-05 | 2.6 | 3.2 | 1 | 
11 | c1ccc(Cc2nnc(Nc3nccs3)[nH]2)cc1 [Compound 5b, N-(5-Benzyl-4H-1,2,4-triazol-3-yl)thiazol-2-amine] | 166 ± 17.4 | 8.27 ± 0.03 | SI = 20.04 | 38.49 ± 0.02 | SI = 4.30 | 18.22 ± 0.03 | SI = 9.09 | 4.18 ± 0.03 | SI = 39.65 | 0.13 ± 0.11 | 0.22 ± 0.15 | 0.00062 ± 5e-05 |  |  |  | 
12 | Nc1ccccc1NC(=S)NC(=O)Cc1ccccc1 [Compound 2c, N-((2-Aminophenyl)carbamothioyl)-2-phenylacetamide] | 145 ± 14.9 | 27.81 ± 0.04 |  | 47.66 ± 0.04 |  | 25.44 ± 0.04 |  | 21.76 ± 0.08 |  |  |  |  |  |  |  | 
13 | CC(C)N=c1nc(Cc2ccccc2)[nH]c(=S)[nH]1 [Compound 8a, 6-Benzyl-4-(isopropylimino)-3,4-dihydro-1,3,5-triazine-2(1H)-thione] | 173 ± 18.9 | 25.46 ± 0.05 | SI = 6.81 | 59.84 ± 0.05 | SI = 2.91 | 36.55 ± 0.03 | SI = 4.74 | 13.75 ± 0.08 | SI = 12.61 |  |  |  |  |  |  | 
14 | S=c1[nH]c(Cc2ccccc2)nc(=Nc2nccs2)[nH]1 [Compound 8b, 6-Benzyl-4-(thiazol-2-ylimino)-3,4-dihydro-1,3,5-triazine-2(1H)-thione] | 197 ± 20.7 | 37.21 ± 0.03 | SI = 5.28 | 60.48 ± 0.05 | SI = 3.25 | 42.56 ± 0.06 | SI = 4.62 | 17.95 ± 0.04 | SI = 10.95 |  |  |  |  |  |  | 
15 | O=c1nc(Cc2ccccc2)[nH]c(Nc2nccs2)n1 [Compound 7, 4-Benzyl-6-(thiazol-2-ylamino)-1,3,5-triazin-2(5H)-one] | 165 ± 18.1 | 7.43 ± 0.04 |  | 29.75 ± 0.03 |  | 17.9 ± 0.03 |  | 4.65 ± 0.07 |  | 0.18 ± 0.11 | 0.22 ± 0.05 |  |  |  |  | ~2
16 | COc1cccc2c1C(=O)c1c(O)c3c(c(O)c1C2=O)C[C@@](O)(C(=O)CO)C[C@@H]3O[C@H]1C[C@H](N)[C@H](O)[C@H](C)O1 [DOX, doxorubicin, reference compound] | 250 ± 26.6 | 8.2 ± 0.08 |  | 4.51 ± 0.26 |  | 8.11 ± 0.05 |  |  |  |  |  |  |  |  |  | 
17 | c1ccc(Cc2nc(Nc3nccs3)n(-c3ccccc3)n2)cc1 [Compound 6a, N-(3-Benzyl-1-phenyl-1H-1,2,4-triazol-5-yl)thiazol-2-amine] | 157 ± 16.9 | 5.2 ± 0.03 | SI = 30.27 | 10.48 ± 0.03 | SI = 15.02 | 16.3 ± 0.09 | SI = 9.65 | 4.3 ± 0.04 | SI = 36.61 | 0.12 ± 0.18 | 0.18 ± 0.1 |  |  |  |  | 
